Results on 14 compounds are retold here after PubChem BioAssay (NCI).

Each structure is given as a SMILES string.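 A five-concentration, 48-hour dose response in 96-well plates underlies each endpoint, interpolated linearly between surrounding concentrations. Here, GI50 denotes the concentration required for 50% inhibition of growth. TGI: total growth inhibition.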

Among the test systems are SK-MEL-28 melanoma; DU-145 prostate; HCT-116 colon; HOP-92 NSCLC; MALME-3M melanoma; UACC-62 melanoma; SN12C renal; HS 578T breast; SF-539 CNS; HT29 colon; BT-549 breast.
Holding throughout (experiment): NCI tumour cell line growth inhibition, 48 h

Take `N#Cc1c(N2CCCC2)ncn(-c2ccccc2)c1=O`: the TGI in the assay with SK-MEL-28 melanoma, in the assay with DU-145 prostate, in the assay with HCT-116 colon, with HOP-92 NSCLC, in the assay on MALME-3M melanoma and with UACC-62 melanoma was over 100 µM throughout. The TGI in the assay on SN12C renal, in the assay with HS 578T breast, with SF-539 CNS and with HT29 colon was over 100 µM in each case.

Take `COC(=O)c1c(C)cccc1C1CN=NC12Cc1ccc(C)cc1C2=O` (centres undefined): the TGI is over 100 µM with SK-MEL-28 melanoma; over 100 µM in the assay on DU-145 prostate; 74 µM in the assay with HCT-116 colon; over 100 µM in the assay with HOP-92 NSCLC; over 100 µM in the assay on MALME-3M melanoma; 78.5 µM with UACC-62 melanoma. The TGI in the assay with SN12C renal, in the assay with HS 578T breast, in the assay with SF-539 CNS and with HT29 colon was over 100 µM in each case.

As to `CCCCC#C[I+]c1ccccc1`, the TGI with SK-MEL-28 melanoma came to 31.8 µM; with HCT-116 colon, 30 µM; with HOP-92 NSCLC, 24.1 µM; in the assay with MALME-3M melanoma, 28.2 µM; in the assay on UACC-62 melanoma it was 33 µM; with SN12C renal, 28.3 µM. In addition, the TGI with SF-539 CNS was 38.8 µM; in the assay with HT29 colon, 32 µM.

With `N#CCCC1C(C#N)C2(Cl)CC1(Cl)C(Cl)=C2Cl` (centres undefined), the TGI in the assay on SK-MEL-28 melanoma, in the assay on DU-145 prostate, with HCT-116 colon, in the assay with MALME-3M melanoma, in the assay with UACC-62 melanoma and in the assay with SN12C renal was over 10 µM throughout. Moreover, the TGI with HS 578T breast, in the assay with SF-539 CNS and in the assay on HT29 colon was over 10 µM in each case.

In the case of `O=C1CCCc2cc3c(cc21)CC1(Cc2ccccc2C1)C3`, the TGI with HCT-116 colon is 13.6 µM; in the assay on HOP-92 NSCLC it was 53 µM; with MALME-3M melanoma, 70.1 µM; in the assay with UACC-62 melanoma, over 100 µM; in the assay on SN12C renal, 41 µM; with HS 578T breast, over 100 µM. Moreover, the TGI in the assay with SF-539 CNS was found to be 18.7 µM; with HT29 colon it was 8.6 µM.

With `Cc1cc(Cc2cc(C)c(N)cc2N)c(N)cc1N`, the TGI in the assay on SK-MEL-28 melanoma, in the assay on DU-145 prostate, in the assay with HCT-116 colon, in the assay with UACC-62 melanoma, in the assay on SN12C renal and in the assay with BT-549 breast was over 100 µM in each case. The TGI in the assay on SF-539 CNS and in the assay with HT29 colon was over 100 µM throughout.

In the case of `Cc1c(O)c(O)cc[n+]1C1OC(CO)C(O)C1O` (centres undefined), the TGI in the assay with SK-MEL-28 melanoma, in the assay with HCT-116 colon, in the assay with HOP-92 NSCLC, with MALME-3M melanoma, in the assay with UACC-62 melanoma and with SN12C renal was over 100 µM in each case. For the same compound, the TGI with HT29 colon is over 100 µM.

Regarding `C=C1C(=O)O[C@@H]2C(=O)[C@@H](C)CCC/C(C)=C/CC[C@@]3(C)O[C@@H]3C[C@@H]12`, the TGI with SK-MEL-28 melanoma was over 100 µM; in the assay on DU-145 prostate, over 100 µM; with HCT-116 colon, 96.1 µM; in the assay with HOP-92 NSCLC it was 31.2 µM; with MALME-3M melanoma it was over 100 µM; in the assay on UACC-62 melanoma it was over 100 µM. For the same compound, the figures for the TGI with SN12C renal, in the assay on SF-539 CNS and in the assay on HT29 colon were over 100 µM, 60.6 µM and 31.1 µM, respectively.

With `O=C1CCCSC(=O)N1Cc1ccccc1`, the TGI with SK-MEL-28 melanoma, in the assay on DU-145 prostate, in the assay with HCT-116 colon, with HOP-92 NSCLC, with MALME-3M melanoma and with UACC-62 melanoma was over 100 µM in each case. In addition, the TGI with SN12C renal, with HS 578T breast, with SF-539 CNS and in the assay on HT29 colon was over 100 µM each time.

For the compound `COc1cc2c(c(OC)c1OC)C(=O)[C@@H]1[C@H]2N1C(N)=O`, the TGI with SK-MEL-28 melanoma was over 100 µM; with DU-145 prostate, over 100 µM; in the assay with HCT-116 colon, over 100 µM; in the assay with MALME-3M melanoma it was over 100 µM; in the assay on UACC-62 melanoma, 68.2 µM; in the assay with SN12C renal, over 100 µM. In addition, the TGI in the assay on HS 578T breast, in the assay with SF-539 CNS and in the assay with HT29 colon was over 100 µM in each case.

As to `O=C(NC(=O)c1ccccc1[N+](=O)[O-])Nc1ccc(Oc2ncc(Br)cn2)c(Cl)c1`, the TGI in the assay on SK-MEL-28 melanoma is 0.0733 µM; in the assay with DU-145 prostate, 0.0902 µM; with MALME-3M melanoma, 0.0537 µM; in the assay with HS 578T breast, 0.0934 µM; in the assay on SF-539 CNS it was 0.0524 µM; in the assay on HT29 colon, 0.0568 µM. For the same compound, the GI50 with SN12C renal is under 0.027 µM.

For the compound `O=C(CCN1CCCCC1)C(=Cc1ccccc1)C(=O)CCN1CCCCC1`, the GI50 was over 100 µM in the assay with SK-MEL-28 melanoma, 8.82 µM in the assay with UACC-62 melanoma, 3.52 µM in the assay on SN12C renal and 76.3 µM in the assay with HT29 colon. The TGI with SK-MEL-28 melanoma is over 100 µM; in the assay with HCT-116 colon, over 100 µM; in the assay on HOP-92 NSCLC, over 96.8 µM; in the assay with UACC-62 melanoma, over 100 µM; in the assay on SN12C renal, over 100 µM; with SF-539 CNS, over 100 µM. The compound also came in with a TGI with HT29 colon of over 100 µM.

As to `CCC(C(=O)O)c1ccc(OC)cc1` (centres undefined), the TGI in the assay on SK-MEL-28 melanoma, in the assay on HCT-116 colon, with HOP-92 NSCLC, with MALME-3M melanoma, with UACC-62 melanoma and in the assay on SN12C renal was over 100 µM in each case. Moreover, the TGI in the assay with SF-539 CNS and with HT29 colon was over 100 µM throughout.

In the case of `C[C@]12CCC(O)CC1=CC[C@@H]1[C@@H]2CC[C@]2(C)C(=O)[C@H](n3ccnc3)C[C@@H]12` (some centres undefined), the TGI with SK-MEL-28 melanoma, with DU-145 prostate, in the assay with HCT-116 colon, in the assay with HOP-92 NSCLC, in the assay on MALME-3M melanoma and in the assay with UACC-62 melanoma was over 100 µM in each case. Moreover, the TGI in the assay on SN12C renal, with HS 578T breast, with SF-539 CNS and in the assay on HT29 colon was over 100 µM throughout.
